# Assay results reported in the supplement of paper PMC10307832.
# Assays:
# Test in all cases: relative viability (nuclei count vs DMSO), 5 days (fraction); higher = more cells survive
# [1] = compound: Nc1ncn([C@H]2C[C@H](O)[C@@H](CO)O2)c(=O)n1 [Decitabine] + Cc1cc(Nc2cc(N3CCN(C)CC3)nc(Sc3ccc(NC(=O)C4CC4)cc3)n2)n[nH]1 [Tozasertib] (partner 0.1 µM)
# How it was run: (§1)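 Five library-drug doses in √10 steps were combined with a fixed anchor-drug dose, or a single drug was given alone, by pin tool to lung cancer cell lines in 1536-well plates the day after seeding. Nuclei were stained and counted after 5 days. Relative viability is the nuclei count in treated wells over that in vehicle wells, taken as the median of duplicate plates.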
# [2] = compound: O=C(C[C@H]1NCCC[C@@H]1O)Cn1cnc2cc(Br)c(Cl)cc2c1=O (racemic) [Halofuginone] + O=C(CCCCCCC(=O)Nc1ccccc1)NO [Vorinostat] (partner 1 µM)
# How it was run: as §1
# [3] = compound: Nc1ncn([C@H]2C[C@H](O)[C@@H](CO)O2)c(=O)n1 [Decitabine] + C[C@@H](Oc1cc(-c2cnn(C3CCNCC3)c2)cnc1N)c1c(Cl)ccc(F)c1Cl [Crizotinib] (partner 1 µM)
# How it was run: as §1
# [4] = compound: O=C(C[C@H]1NCCC[C@@H]1O)Cn1cnc2cc(Br)c(Cl)cc2c1=O (racemic) [Halofuginone] + CC1(C)CCC(c2ccc(Cl)cc2)=C(CN2CCN(c3ccc(C(=O)NS(=O)(=O)c4ccc(N[C@H](CCN5CCOCC5)CSc5ccccc5)c(S(=O)(=O)C(F)(F)F)c4)cc3)CC2)C1 [Navitoclax] (partner 0.5 µM)
# How it was run: as §1
Cell Line,relative viability ([1]; first compound 0.04 µM),relative viability ([1]; first compound 0.1265 µM),relative viability ([1]; first compound 0.4 µM),relative viability ([1]; first compound 1.265 µM),relative viability ([1]; first compound 4 µM),relative viability ([2]; first compound 0.001 µM),relative viability ([2]; first compound 0.003162 µM),relative viability ([2]; first compound 0.01 µM),relative viability ([2]; first compound 0.03162 µM),relative viability ([2]; first compound 0.1 µM),relative viability ([3]; first compound 0.04 µM),relative viability ([3]; first compound 0.1265 µM),relative viability ([3]; first compound 0.4 µM),relative viability ([3]; first compound 1.265 µM),relative viability ([3]; first compound 4 µM),relative viability ([4]; first compound 0.001 µM),relative viability ([4]; first compound 0.003162 µM),relative viability ([4]; first compound 0.01 µM),relative viability ([4]; first compound 0.03162 µM),relative viability ([4]; first compound 0.1 µM)
NCI-H2342,0.495,0.502,0.552,0.385,0.362,0.649,0.743,0.725,0.715,0.737,–,–,–,–,–,–,–,–,–,–
SW 1573,0.165,0.167,0.172,0.124,0.108,1.27,–,0.775,0.601,0.167,0.627,0.961,0.724,0.507,0.358,1.03,1.01,0.921,0.6,0.168
NCI-H1993,0.682,0.591,0.683,0.568,0.553,1.1,0.852,0.809,0.0067,0.576,0.898,0.776,0.832,0.702,0.728,1.04,0.875,1.04,0.874,0.668
NCI-H661,0.345,0.33,0.341,0.318,0.348,0.773,0.803,0.682,0.549,0.491,0.929,0.945,0.918,0.619,0.523,–,–,–,–,–
NCI-H520,0.402,0.444,0.386,0.352,0.308,0.644,0.711,0.551,0.612,0.309,0.654,0.544,0.399,0.308,0.26,1.18,1.05,1.03,0.835,0.346
ChaGo-K-1,0.23,0.238,0.189,0.176,0.208,0.725,0.766,0.755,0.726,0.746,0.962,0.857,0.631,0.6,0.605,0.88,0.587,1.01,0.859,0.975
NCI-H2085,0.666,0.669,0.54,0.454,0.437,0.817,0.805,0.759,0.815,0.748,0.578,0.432,0.519,0.399,0.388,1.1,1.25,1.03,1.02,0.74
NCI-H1651,0.521,0.718,0.6,0.378,0.371,0.528,0.528,0.572,0.548,0.59,0.788,0.836,0.755,0.586,0.635,1.04,1.15,1.12,0.761,0.267
RERF-LC-KJ,0.511,0.446,–,0.309,0.379,0.8,0.675,0.605,0.718,0.604,0.812,0.77,0.245,0.551,0.561,0.987,1.11,1.05,0.905,0.699
NCI-H650,0.562,0.468,0.372,0.264,0.245,0.792,0.537,0.5,0.376,0.355,0.533,0.524,0.303,0.264,0.195,–,–,–,–,–
NCI-H1703,–,–,–,–,–,–,–,–,–,–,0.397,0.419,0.214,0.263,0.134,1.46,1.04,1.08,0.765,0.194
NCI-H522,0.538,0.624,0.376,0.446,0.37,0.833,0.829,0.926,0.951,0.976,–,–,–,–,–,–,–,–,–,–
LCLC-103H,0.485,0.463,0.308,0.369,0.253,0.865,0.807,0.803,0.723,0.719,1.01,1.02,0.78,0.82,0.79,–,–,–,–,–
NCI-H1563,–,–,–,–,–,–,–,–,–,–,0.947,0.861,0.908,0.905,0.799,–,–,–,–,–
NCI-H1793,0.288,0.335,0.247,0.226,0.207,0.898,0.672,0.664,0.846,0.497,–,–,–,–,–,0.409,0.367,0.406,0.396,0.195
NCI-H358,0.121,0.0951,0.0825,0.1,0.0948,0.79,0.702,0.634,0.233,0.109,0.385,0.39,0.246,0.192,0.161,–,–,–,–,–
SW 900,0.288,0.297,0.222,0.182,0.15,0.729,0.379,–,0.535,0.317,–,–,–,–,–,–,–,–,–,–
NCI-H1792,–,–,–,–,–,–,–,–,–,–,0.97,1.01,0.948,0.501,0.553,0.557,0.671,0.783,0.664,0.654
NCI-H1623,0.401,0.422,0.367,0.373,0.305,–,–,–,–,–,–,–,–,–,–,–,–,–,–,–
IA-LM,–,–,–,–,–,1.02,0.995,0.902,0.92,0.878,0.342,0.274,0.2,0.191,0.102,0.864,0.961,0.702,0.572,0.0557
EBC-1,–,–,–,–,–,–,–,–,–,–,0.146,0.176,0.193,0.144,0.148,0.535,0.35,0.274,0.244,0.109
NCI-H1299,–,–,–,–,–,–,–,–,–,–,0.979,0.991,0.956,0.85,0.856,1.1,1.05,1.05,1.02,0.964
